Measurements reported in patent publication US20250136578A1 (Kolm Therapeutics Inc., priority 2023, published 2025).
Read-outs that look alike come from different tables or passages of the source.

Key:
VCaP cells = assay: VCaP growth inhibition assay (CTG); assay type: cell-based; settings: Homo sapiens, 216 h, 30 pM R1881, 9 days
In short: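 Growth was measured by CTG luminescence after a 9-day exposure of VCaP cells to compound (final 10 fM–100 nM, fivefold steps) in the presence of 30 pM final R1881, in phenol red-free DMEM/5% CSS. IC50 values were derived by nonlinear 4-parameter regression of RLU against concentration.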

AR / CBP ternary complex = AR / CBP ternary complex (Homo sapiens, UniProt P10275+Q92793); assay: Ternary complex formation assay (sandwich ELISA, AR capture, CBP antibody detection) in VCaP cell lysates; assay type: cell-based
In short: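 Sandwich ELISA: plates were coated with anti-AR antibody (AR441) and given lysates of VCaP cells treated 1.5 h with bifunctional compound in charcoal-stripped serum. Co-captured CBP or p300 was probed with rabbit mAbs and HRP secondary. Chemifluorescent signal (ex 570/em 585) was read at 0, 5 and 15 min.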

[1] = treated 1.5 hours, rabbit CBP or p300 antibody detection, average, read-out: Average Ternary Complex
[2] = read-out: Average Ternary Complex, treated 1.5 hours, rabbit CBP or p300 antibody detection

Sequence of AR / CBP ternary complex (P10275 whole entry): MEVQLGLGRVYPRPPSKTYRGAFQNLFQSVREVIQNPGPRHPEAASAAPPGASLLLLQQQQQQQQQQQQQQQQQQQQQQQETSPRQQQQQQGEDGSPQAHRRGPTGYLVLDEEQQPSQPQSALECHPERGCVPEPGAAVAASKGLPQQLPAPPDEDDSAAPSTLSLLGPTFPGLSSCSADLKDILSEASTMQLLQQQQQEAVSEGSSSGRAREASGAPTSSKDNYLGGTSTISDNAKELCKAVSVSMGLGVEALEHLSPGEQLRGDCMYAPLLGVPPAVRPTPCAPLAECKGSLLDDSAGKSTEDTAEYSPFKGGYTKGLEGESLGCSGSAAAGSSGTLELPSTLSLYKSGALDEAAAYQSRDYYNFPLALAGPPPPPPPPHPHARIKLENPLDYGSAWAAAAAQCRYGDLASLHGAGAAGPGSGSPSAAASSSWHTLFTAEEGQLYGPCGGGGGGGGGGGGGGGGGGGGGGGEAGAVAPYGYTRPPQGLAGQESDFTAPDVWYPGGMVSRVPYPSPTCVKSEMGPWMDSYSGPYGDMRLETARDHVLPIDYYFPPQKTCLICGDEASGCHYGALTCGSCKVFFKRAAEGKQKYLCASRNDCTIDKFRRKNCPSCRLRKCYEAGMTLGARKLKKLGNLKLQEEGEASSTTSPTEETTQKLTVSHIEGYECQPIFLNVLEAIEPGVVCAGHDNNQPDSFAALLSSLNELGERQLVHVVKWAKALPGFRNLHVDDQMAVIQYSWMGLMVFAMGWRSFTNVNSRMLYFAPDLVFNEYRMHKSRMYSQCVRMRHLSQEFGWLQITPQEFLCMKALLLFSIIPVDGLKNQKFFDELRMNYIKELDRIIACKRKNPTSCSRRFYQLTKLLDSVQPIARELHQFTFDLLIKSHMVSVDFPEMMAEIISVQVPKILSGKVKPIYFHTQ
Sequence of AR / CBP ternary complex (Q92793 2-2442): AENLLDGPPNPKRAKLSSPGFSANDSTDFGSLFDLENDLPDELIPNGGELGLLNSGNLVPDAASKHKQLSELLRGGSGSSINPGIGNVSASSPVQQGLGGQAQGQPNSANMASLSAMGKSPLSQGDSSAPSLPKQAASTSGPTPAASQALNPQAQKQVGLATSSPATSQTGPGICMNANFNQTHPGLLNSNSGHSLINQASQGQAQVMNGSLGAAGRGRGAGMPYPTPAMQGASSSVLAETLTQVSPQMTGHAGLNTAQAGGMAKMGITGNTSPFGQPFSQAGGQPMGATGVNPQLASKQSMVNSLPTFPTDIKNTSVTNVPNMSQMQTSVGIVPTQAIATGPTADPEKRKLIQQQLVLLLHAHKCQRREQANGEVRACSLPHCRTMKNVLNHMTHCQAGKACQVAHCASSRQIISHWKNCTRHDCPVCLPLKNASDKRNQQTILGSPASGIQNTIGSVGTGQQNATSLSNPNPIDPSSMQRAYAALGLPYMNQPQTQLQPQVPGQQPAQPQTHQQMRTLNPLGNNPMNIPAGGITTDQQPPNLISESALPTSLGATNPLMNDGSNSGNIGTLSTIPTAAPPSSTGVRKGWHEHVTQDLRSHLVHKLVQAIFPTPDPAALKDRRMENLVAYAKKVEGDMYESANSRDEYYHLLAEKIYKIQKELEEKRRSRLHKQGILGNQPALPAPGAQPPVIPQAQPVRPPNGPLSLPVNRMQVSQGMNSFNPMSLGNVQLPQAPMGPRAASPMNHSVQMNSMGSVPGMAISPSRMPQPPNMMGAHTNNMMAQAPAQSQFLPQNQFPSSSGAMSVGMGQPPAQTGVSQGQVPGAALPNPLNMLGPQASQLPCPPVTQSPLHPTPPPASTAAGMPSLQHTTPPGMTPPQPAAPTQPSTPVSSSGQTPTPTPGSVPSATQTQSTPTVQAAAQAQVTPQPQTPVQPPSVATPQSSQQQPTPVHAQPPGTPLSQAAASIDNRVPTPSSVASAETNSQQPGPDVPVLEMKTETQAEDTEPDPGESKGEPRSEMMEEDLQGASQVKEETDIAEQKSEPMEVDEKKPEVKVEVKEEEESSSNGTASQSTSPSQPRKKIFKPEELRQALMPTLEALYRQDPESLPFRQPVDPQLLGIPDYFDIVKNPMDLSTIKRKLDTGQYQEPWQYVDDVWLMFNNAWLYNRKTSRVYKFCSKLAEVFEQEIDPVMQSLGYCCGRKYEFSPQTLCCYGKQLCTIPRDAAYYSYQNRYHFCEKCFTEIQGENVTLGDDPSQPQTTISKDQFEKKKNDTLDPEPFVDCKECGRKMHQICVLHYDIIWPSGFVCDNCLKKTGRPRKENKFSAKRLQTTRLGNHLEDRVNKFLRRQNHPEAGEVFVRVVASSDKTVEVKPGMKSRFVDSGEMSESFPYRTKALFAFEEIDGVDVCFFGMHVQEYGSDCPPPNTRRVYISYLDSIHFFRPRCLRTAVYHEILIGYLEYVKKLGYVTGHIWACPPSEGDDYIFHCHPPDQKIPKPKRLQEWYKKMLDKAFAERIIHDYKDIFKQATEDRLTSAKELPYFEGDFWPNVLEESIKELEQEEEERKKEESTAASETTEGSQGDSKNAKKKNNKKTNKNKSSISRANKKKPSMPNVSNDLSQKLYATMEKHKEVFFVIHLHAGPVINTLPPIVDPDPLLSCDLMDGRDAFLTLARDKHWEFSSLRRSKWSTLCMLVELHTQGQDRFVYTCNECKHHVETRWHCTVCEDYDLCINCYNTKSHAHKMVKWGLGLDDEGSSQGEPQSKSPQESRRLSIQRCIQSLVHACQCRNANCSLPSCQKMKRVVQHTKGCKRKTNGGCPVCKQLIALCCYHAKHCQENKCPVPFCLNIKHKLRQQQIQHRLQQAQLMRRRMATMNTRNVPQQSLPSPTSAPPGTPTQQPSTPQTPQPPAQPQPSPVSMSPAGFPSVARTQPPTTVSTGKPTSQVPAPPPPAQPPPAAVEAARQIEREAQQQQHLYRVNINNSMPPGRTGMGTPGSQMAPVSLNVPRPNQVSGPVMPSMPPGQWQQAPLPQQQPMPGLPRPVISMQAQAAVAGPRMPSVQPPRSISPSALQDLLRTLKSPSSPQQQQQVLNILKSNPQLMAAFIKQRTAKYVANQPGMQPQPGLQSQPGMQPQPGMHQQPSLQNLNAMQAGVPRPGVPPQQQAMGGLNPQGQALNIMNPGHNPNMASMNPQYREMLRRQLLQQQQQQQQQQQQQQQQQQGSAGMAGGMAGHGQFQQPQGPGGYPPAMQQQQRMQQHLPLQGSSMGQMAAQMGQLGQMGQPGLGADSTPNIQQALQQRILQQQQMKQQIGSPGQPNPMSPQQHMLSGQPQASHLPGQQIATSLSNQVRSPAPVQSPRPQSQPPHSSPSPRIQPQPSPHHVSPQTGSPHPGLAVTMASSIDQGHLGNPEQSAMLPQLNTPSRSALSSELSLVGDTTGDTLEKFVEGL

| SMILES | IC50 (VCaP cells) [nM] | EC50 (AR / CBP ternary complex; [1]) [nM] | EC50 (AR / CBP ternary complex; [2]) [nM] |
| --- | --- | --- | --- |
| CC(=O)N1CCc2c(c(N3CCCc4cc(-c5cnn(C)c5)c(C(F)F)cc43)nn2[C@@H]2CCN(CC3CCN(c4ccc(C(=O)N[C@H]5CC[C@H](Oc6ccc(C#N)c(Cl)c6)CC5)nn4)CC3)C[C@@H]2F)C1 [Compound 144, 6-[4-[[(3S,4R)-4-[5-acetyl-3-[7-(difluoromethyl)-6-(1-methylpyrazol-4-yl)-3,4-dihydro-2H-quinolin-1-yl]-6,7-dihydro-4H-pyrazolo[4,3-c]pyridin-1-yl]-3-fluoro-1-piperidyl]methyl]-1-piperidyl]-N-[4-(3-chloro-4-cyano-phenoxy)cyclohexyl] pyridazine-3-carboxamide] | ≤ 0.1 | < 1 | – |
| CC(=O)N1CCc2c(c(N3CCCc4cc(-c5cnn(C)c5)c(C(F)F)cc43)nn2[C@H]2CC[C@H](CC3CCN(c4ccc(C(=O)N[C@H]5CC[C@H](Oc6ccc(C#N)c(Cl)c6)CC5)nn4)CC3)CC2)C1 [Compound 145, 6-[4-[[4-[5-acetyl-3-[7-(difluoromethyl)-6-(1-methylpyrazol-4-yl)-3,4-dihydro-2H-quinolin-1-yl]-6,7-dihydro-4H-pyrazolo[4,3-c]pyridin-1-yl]cyclohexyl]methyl]-1-piperidyl]-N-[4-(3-chloro-4-cyano-phenoxy)cyclohexyl]pyridazine-3-carboxamide] | 0.1 to 1 | < 1 | – |
| Cn1cc(-c2cc3cccc(-c4cc(C5=CCN(CC6CCN(c7ccc(C(=O)N[C@H]8CC[C@H](Oc9ccc(C#N)c(Cl)c9)CC8)nn7)CC6)CC5)c5c(c4)n(C)c(=O)n5C)c3cn2)cn1 [Compound 147, N-[4-(3-chloro-4-cyano-phenoxy)cyclohexyl]-6-[4-[[4-[1,3-dimethyl-6-[3-(1-methylpyrazol-4-yl)-8-isoquinolyl]-2-oxo-benzimidazol-4-yl]-3,6-dihydro-2H-pyridin-1-yl]methyl]-1-piperidyl]pyridazine-3-carboxamide] | 0.1 to 1 | < 1 | – |
| Cn1cc(-c2cc3c(cc2C(F)F)N(c2cc(C4=CCN(CC5CCN(c6ccc(C(=O)N[C@H]7CC[C@H](Oc8ccc(C#N)c(Cl)c8)CC7)nn6)CC5)CC4)c4c(c2)n(C)c(=O)n4C)CCC3)cn1 [Compound 148] | 0.1 to 1 | < 1 | – |
| CC(=O)N1CCc2c(c(N3CCCc4cc(-c5cnn(C)c5)c(C(F)F)cc43)nn2[C@@H]2[C@@H]3C[C@H]2CN(CC2CCN(c4ccc(C(=O)N[C@H]5CC[C@H](Oc6ccc(C#N)c(Cl)c6)CC5)nn4)CC2)C3)C1 [Compound 149, N-[4-(3-chloro-4-cyano-phenoxy)cyclohexyl]-6-[4-[[rac-(1S,5R)-6-[5-acetyl-3-[7-(difluoromethyl)-6-(1-methylpyrazol-4-yl)-3,4-dihydro-2H-quinolin-1-yl]-6,7-dihydro-4H-pyrazolo[4,3-c]pyridin-1-yl]-3-azabicyclo[3.1.1]heptan-3-yl]methyl]-1-piperidyl]pyridazine-3-carboxamide] | 0.1 to 1 | – | < 1 |
| CC(=O)N1CCc2c(c(N3CCCc4cc(-c5cnn(C)c5)c(C(F)F)cc43)nn2[C@H]2[C@@H]3C[C@H]2CN(CC2CCN(c4ccc(C(=O)N[C@H]5CC[C@H](Oc6ccc(C#N)c(Cl)c6)CC5)nn4)CC2)C3)C1 [Compound 150, N-[4-(3-chloro-4-cyano-phenoxy)cyclohexyl]-6-[4-[[rac-(1R,5S)-6-[5-acetyl-3-[7-(difluoromethyl)-6-(1-methylpyrazol-4-yl)-3,4-dihydro-2H-quinolin-1-yl]-6,7-dihydro-4H-pyrazolo[4,3-c]pyridin-1-yl]-3-azabicyclo[3.1.1]heptan-3-yl]methyl]-1-piperidyl]pyridazine-3-carboxamide] | 0.1 to 1 | – | 1 to 10 |
| CC(=O)N1CCc2c(c(N3CCCc4cc(-c5cnn(C)c5)c(C(F)F)cc43)nn2[C@@H]2C[C@H]3CC[C@@H](C2)N3CC2CCN(c3ccc(C(=O)N[C@H]4CC[C@H](Oc5ccc(C#N)c(Cl)c5)CC4)nn3)CC2)C1 [Compound 152, 6-[4-[[(1R,5S)-3-[5-acetyl-3-[7-(difluoromethyl)-6-(1-methylpyrazol-4-yl)-3,4-dihydro-2H-quinolin-1-yl]-6,7-dihydro-4H-pyrazolo[4,3-c]pyridin-1-yl]-8-azabicyclo[3.2.1]octan-8-yl]methyl]-1-piperidyl]-N-[4-(3-chloro-4-cyano-phenoxy)cyclohexyl]pyridazine-3-carboxamide] | 0.1 to 1 | – | < 1 |
| CC(=O)N1CCc2c(c(-c3cccc4cc(-c5ccc(CCC6CCN(c7ccc(C(=O)N[C@H]8CC[C@H](Oc9ccc(C#N)c(Cl)c9)CC8)nn7)CC6)cc5)ncc34)nn2C2CCOCC2)C1 [Compound 153, 6-[4-[2-[4-[8-(5-acetyl-1-tetrahydropyran-4-yl-6,7-dihydro-4H-pyrazolo[4,3-c]pyridin-3-yl)-3-isoquinolyl]phenyl]ethyl]-1-piperidyl]-N-[4-(3-chloro-4-cyano-phenoxy)cyclohexyl]pyridazine-3-carboxamide] | ≤ 0.1 | < 1 | – |
| CC(=O)N1CCc2c(c(N3CCCc4cc(-c5ccc(CCC6CCN(c7ccc(C(=O)N[C@H]8CC[C@H](Oc9ccc(C#N)c(Cl)c9)CC8)nn7)CC6)cc5)c(C(F)F)cc43)nn2C2CCOCC2)C1 [Compound 154, 6-[4-[2-[4-[1-(5-acetyl-1-tetrahydropyran-4-yl-6,7-dihydro-4H-pyrazolo[4,3-c]pyridin-3-yl)-7-(difluoromethyl)-3,4-dihydro-2H-quinolin-6-yl]phenyl]ethyl]-1-piperidyl]-N-[4-(3-chloro-4-cyano-phenoxy)cyclohexyl]pyridazine-3-carboxamide] | 0.1 to 1 | < 1 | – |
| CC(=O)N1CCc2c(c(N3CCCc4cc(-c5cnn(C)c5)c(C(F)F)cc43)nn2C2CCC(CC3CCN(c4ccc(C(=O)N[C@H]5CC[C@H](Oc6ccc(C#N)c(Cl)c6)CC5)nn4)CC3)CC2)C1 (stereo partly drawn) [Compound 155, 6-[4-[[4-[5-acetyl-3-[7-(difluoromethyl)-6-(1-methylpyrazol-4-yl)-3,4-dihydro-2H-quinolin-1-yl]-6,7-dihydro-4H-pyrazolo[4,3-c]pyridin-1-yl]cyclohexyl]methyl]-1-piperidyl]-N-[4-(3-chloro-4-cyano-phenoxy)cyclohexyl]pyridazine-3-carboxamide] | 0.1 to 1 | < 1 | – |
| CC(=O)N1CCc2c(c(N3CCCc4cc(-c5ccc(CCC6CCN(c7ccc(C(=O)N[C@H]8CC[C@H](Oc9ccc(C#N)c(Cl)c9)CC8)nn7)CC6)cc5)ncc43)nn2C2CCOCC2)C1 [Compound 156, 6-[4-[2-[4-[1-(5-acetyl-1-tetrahydropyran-4-yl-6,7-dihydro-4H-pyrazolo[4,3-c]pyridin-3-yl)-3,4-dihydro-2H-1,7-naphthyridin-6-yl]phenyl]ethyl]-1-piperidyl]-N-[4-(3-chloro-4-cyano-phenoxy)cyclohexyl]pyridazine-3-carboxamide] | 1 to 100 | 1 to 10 | – |
| CC(=O)N1CCc2c(c(N3CCCc4cc(-c5ccc(CCN6CCN(c7ccc(C(=O)N[C@H]8CC[C@H](Oc9ccc(C#N)c(Cl)c9)CC8)nn7)CC6)cc5)ncc43)nn2C2CCOCC2)C1 [Compound 157, 6-[4-[2-[4-[1-(5-acetyl-1-tetrahydropyran-4-yl-6,7-dihydro-4H-pyrazolo[4,3-c]pyridin-3-yl)-3,4-dihydro-2H-1,7-naphthyridin-6-yl]phenyl]ethyl]piperazin-1-yl]-N-[4-(3-chloro-4-cyano-phenoxy)cyclohexyl]pyridazine-3-carboxamide] | 0.1 to 1 | < 1 | – |
| CC(=O)N1CCc2c(c(N3CCCc4cc(-c5cnn(C)c5)c(C(F)F)cc43)nn2C2CCN(C(=O)C3CCN(c4ccc(C(=O)N[C@H]5CC[C@H](Oc6ccc(C#N)c(Cl)c6)CC5)cn4)CC3)CC2)C1 [Compound 158, 6-[4-[4-[5-acetyl-3-[7-(difluoromethyl)-6-(1-methylpyrazol-4-yl)-3,4-dihydro-2H-quinolin-1-yl]-6,7-dihydro-4H-pyrazolo[4,3-c]pyridin-1-yl]piperidine-1-carbonyl]-1-piperidyl]-N-[4-(3-chloro-4-cyano-phenoxy)cyclohexyl]pyridine-3-carboxamide] | 0.1 to 1 | 1 to 10 | – |
| CC(=O)N1CCc2c(c(N3CCCc4cc(-c5cnn(C)c5)c(C(F)F)cc43)nn2C2CCN(C(=O)C3CCN(c4ccc(C(=O)N[C@H]5CC[C@H](Oc6ccc(C#N)c(Cl)c6)CC5)cc4)CC3)CC2)C1 [Compound 159, 4-[4-[4-[5-acetyl-3-[7-(difluoromethyl)-6-(1-methylpyrazol-4-yl)-3,4-dihydro-2H-quinolin-1-yl]-6,7-dihydro-4H-pyrazolo[4,3-c]pyridin-1-yl]piperidine-1-carbonyl]-1-piperidyl]-N-[4-(3-chloro-4-cyano-phenoxy)cyclohexyl]benzamide] | ≤ 0.1 | < 1 | – |
| COc1cc(O[C@H]2CC[C@H](NC(=O)c3ccc(N4CCC(C(=O)N5CCC(n6nc(N7CCCc8cc(-c9cnn(C)c9)c(C(F)F)cc87)c7c6CCN(C(C)=O)C7)CC5)CC4)cc3)CC2)ccc1C#N [Compound 160, 4-[4-[4-[5-acetyl-3-[7-(difluoromethyl)-6-(1-methylpyrazol-4-yl)-3,4-dihydro-2H-quinolin-1-yl]-6,7-dihydro-4H-pyrazolo[4,3-c]pyridin-1-yl]piperidine-1-carbonyl]-1-piperidyl]-N-[4-(4-cyano-3-methoxy-phenoxy)cyclohexyl]benzamide] | ≤ 0.1 | < 1 | – |
